From patent US12245597B2 (priority 2017, dated 2025)

Assays:
[1] = tested on: L. crescens; assay type: cell-based, Liberibacter crescens; conditions: control, at each tested level
[2] = tested on: CLas; assay type: in vivo, Candidatus Liberibacter asiaticus in citrus plants; conditions: forty-eight hours after treatment; soil drench
[3] = tested on: CLas; assay type: in vivo, Candidatus Liberibacter asiaticus in citrus plants; conditions: after twenty-eight days; soil drench, 10 Brix; p<0.05

SMILES | inhibition [1] [%] | change in PMA titer (positive = reduction in live bacteria) [2] | number of copies of CLas genes, change from the initial value [3]
CN(C)[C@@H]1C(=O)C(C(N)=O)=C(O)[C@@]2(O)C(=O)C3=C(O)c4c(O)cccc4[C@@](C)(O)[C@H]3[C@H](O)[C@@H]12 [Oxytetracyclin] | 100 | – | –
[H]/N=C(/N)N[C@H]1[C@H](O)[C@@H](O)[C@H](O[C@@H]2O[C@@H](C)[C@](O)(C=O)[C@H]2O[C@@H]2O[C@@H](CO)[C@H](O)[C@@H](O)[C@@H]2NC)[C@@H](N/C(N)=N\[H])[C@@H]1O [Streptomycin] | – | positive values | significant reduction
